Data set [1] is described as follows: Binding affinity to gp41 in HIV1 by fluorescence analysis. Details: species or system Human immunodeficiency virus 1.
The nature of data set [2]: Inhibition of HIV1 3B gp41-mediated cell-cell fusion between viral envelope expressing virus-infected HL2/3 cells to human MAGI-CCR5 cells after 6 hrs by luciferase reporter gene assay. It is filed as cell-based. The note with it: Human immunodeficiency virus 1, MAGI-CCR5, 6 h.
The nature of data set [3]: Cytotoxicity against human MAGI-CCR5 cells assessed as cell viability by MTS assay. It is filed as cell-based.

Structures are written as SMILES. Bounds are passed on as bounds.

Take `Cc1ccc(-c2nc(SCC(=O)Nc3ccc(C)c(C)c3)n3[nH]c(=O)cc3n2)cc1`: in data set [1], the inhibitory constant (Ki) came out at 0.46 µM. In data set [2], this compound had a concentration for half-maximal inhibition (IC50) of 13.3 µM. The cytotoxic concentration (CC50) in data set [3] is > 50 µM.

Consider `O=C(O)c1cccc(N/N=C2\C(=O)N(c3nc(-c4ccccc4)cs3)N=C2c2ccccc2)c1`, for which the inhibitory constant (Ki) in data set [1] was 0.2 µM. In data set [2], this compound came in with a concentration for half-maximal inhibition (IC50) of 4.64 µM. In data set [3], the CC50 was determined as 53 µM.

In the case of `O=C(CN1C(=O)N/C(=C/c2ccccc2OCc2ccc(C(=O)O)cc2)C1=O)Nc1ccccc1`, the affinity in data set [1] corresponds to a Ki of 7.1 µM. The same compound showed a half-inhibitory concentration (IC50) in data set [2] of 34 µM. In addition, in data set [3], the CC50 was > 50 µM.

Take `Cc1ccc(OCCn2cc(/C=C/C(=O)O)c3ccccc32)cc1`: the affinity in data set [1], expressed as Ki, was 13 µM. The compound also yielded an IC50 in data set [2] of 43 µM. Besides, in data set [3], the CC50 is > 50 µM.

In data set [1], `CCc1nc2nc(CSc3nnc(NC(=O)COc4ccc(C)c(C)c4)s3)cc(O)n2n1` yielded a Ki of 2.55 µM. For the same compound, 53.5 µM corresponded to half-maximal inhibition in data set [2] (IC50). The CC50 in data set [3] was > 50 µM.

On to `COc1ccc(C(=O)Oc2ccc(Br)cc2/C=N/N=C2\NC(=O)[C@H](CC(=O)O)S2)cc1`, for which the affinity in data set [1] corresponds to a Ki of 1.6 µM. Also, in data set [2], the IC50 came to 41.1 µM. Besides, the 50% cytotoxic concentration (CC50) in data set [3] was found to be 208 µM.

For the compound `Cc1cccc(NC(=O)CN2C(=O)N/C(=C/c3cccn3-c3cccc(C(=O)O)c3)C2=O)c1`, the Ki in data set [1] was 4.45 µM. The 50% inhibitory concentration (IC50) in data set [2] stood at 160 µM. Moreover, the CC50 in data set [3] is > 100 µM.

For the origin of these results see ChEMBL document CHEMBL2016505, “Footprint-based identification of viral entry inhibitors targeting HIVgp41” (Bioorg Med Chem Lett, 2012).
